Assay results reported in patent US7544666B2, “NAP derivatives” (Industrial Technology Research Institute, priority 2005, dated 2009).
Where a SMILES comes first, the peptide text is derived from it. Bridges are numbered along the chain shown (N, C = ends).

Key:
[1] = system: Caco-2 cell; assay: Stability in the Caco-2 cell system; type: in vitro ADME, human; conditions: 4-hour incubation in Caco-2 Transwell; relative to initial conc. = 100.00 (500 μM)
Protocol: (§1) The stability of the NAP derivatives prepared by EXAMPLE 1 was measured with the system of human colon cancer cell, Caco-2 cell. Caco-2 cells (1×10^5 cells) were first seeded into a polycarbonate film on the upper layer of a 12-well Transwell and incubated for 18 to 26 days at 37° C. The TEER of the Caco-2 cell monolayer was measured over 350 Ω×cm^2. The stability of the NAP derivatives in the Hanks' balanced salt solutions (HBSS) was measured by the concentration changes of NAP and the NAP derivatives incubated in the HBSS at 37° C. for 4 hours. The stability of the NAP derivatives in the Caco-2 cell system was measured by the procedure described below. NAP and the NAP derivatives in the HBSS were added into the upper layer of the Caco-2 cell-seeded Transwell. After 4-hour incubation, the concentration of NAP and the NAP derivatives in the upper and lower layers was measured and analyzed in comparison with the initial concentration (500 μM) by reverse HPLC at 210 nm.

[2] = Stability in Hanks' balanced salt solution (HBSS); type: physicochemical; conditions: 37° C., relative to initial conc. in HBSS = 100.00
Protocol: as §1

[3] = system: Caco-2 cell monolayer; assay: Permeation to Caco-2 cell monolayer; type: in vitro ADME, human; set-up: unit not given here; conditions: 4-hour incubation, initial concentration 500 μM in upper layer
Protocol: The permeation of NAP and the NAP derivatives was examined using the Caco-2 cell system. Caco-2 cells (1×10^5 cells) were seeded into the polycarbonate film on the upper layer of a 12-well Transwell and incubated at 37° C. for 18 to 26 days. The TEER of the Caco cell monolayer was measured over 350 Ω×cm^2. NAP and the NAP derivatives in the HBSS were added into the upper layer of the Caco-2 cell-seeded Transwell. After 4-hour incubation, the concentration of NAP and the NAP derivatives in the upper and lower layers was measured and analyzed in comparison with the initial concentration (500 μM) by reverse phase HPLC at 210 nm.

Row | Molecule | Conc. after 4-hour in Caco-2 cells [1] | Conc. after 4-hour in HBSS [2] | Conc. at the lover layer [3]
1 | CC[C@H](C)[C@H](NC(=O)[C@H](CO)NC(=O)[C@@H](NC(=O)[C@@H]1CCCN1C(=O)[C@H](C)NC(=O)[C@H](CC(N)=O)NC(=O)OCC(C)C)C(C)C)C(=O)N1CCC[C@H]1C(=O)N[C@@H](CCC(N)=O)C(N)=O [BMEC-NAP0501, iBu-OCO-NAPVSIPQ-NH2] | 87.00 | 100.17 | 0.76
2 | CC[C@H](C)[C@H](NC(=O)[C@H](CO)NC(=O)[C@@H](NC(=O)[C@@H]1CCCN1C(=O)[C@H](C)NC(=O)[C@H](CC(N)=O)NC(=O)OCc1ccccc1)C(C)C)C(=O)N1CCC[C@H]1C(=O)N[C@@H](CCC(N)=O)C(=O)O [BMEC-NAP0705, Cbz-NAPVSIPQ-OH] | 72.93 | 100.00 | 0.21
3 | CCCCC(CC)COC(=O)N[C@@H](CC(N)=O)C(=O)N[C@@H](C)C(=O)N1CCC[C@H]1C(=O)N[C@H](C(=O)N[C@@H](CO)C(=O)N[C@H](C(=O)N1CCC[C@H]1C(=O)N[C@@H](CCC(N)=O)C(N)=O)[C@@H](C)CC)C(C)C (stereo partly drawn) [BMEC-NAP0502, iOct-OCO-NAPVSIPQ-NH2] | 82.37 |  | 1.39
4 | CCCCC(CC)COC(=O)N[C@@H](CC(N)=O)C(=O)N[C@@H](C)C(=O)N1CCC[C@H]1C(=O)N[C@H](C(=O)N[C@@H](CO)C(=O)N[C@H](C(=O)N1CCC[C@H]1C(=O)N[C@@H](CCC(N)=O)C(=O)O)[C@@H](C)CC)C(C)C (stereo partly drawn) [BMEC-NAP0402, iOct-OCO-NAPVSIPQ-OH] | 18.92 |  | 2.02
5 | CC[C@H](C)[C@H](NC(=O)[C@H](CO)NC(=O)[C@@H](NC(=O)[C@@H]1CCCN1C(=O)[C@H](C)NC(=O)[C@H](CC(N)=O)NC(=O)c1cccc2ccccc12)C(C)C)C(=O)N1CCC[C@H]1C(=O)N[C@@H](CCC(N)=O)C(=O)O [BMEC-NAP0702, α-Naphthoyl-NAPVSIPQ-OH] | 61.61 | 96.55 | 0.27
6 | CC[C@H](C)[C@H](NC(=O)[C@H](CO)NC(=O)[C@@H](NC(=O)[C@@H]1CCCN1C(=O)[C@H](C)NC(=O)[C@H](CC(N)=O)NC(=O)c1ccc2c(c1)C(=O)OC21c2ccc(O)cc2Oc2cc(O)ccc21)C(C)C)C(=O)N1CCC[C@H]1C(=O)N[C@@H](CCC(N)=O)C(=O)O [BMEC-NAP9901, 5(6)FAM-NAPVSIPQ-OH] | 81.63 |  | 0.77
7 | CCCCCCOC(=O)N[C@@H](CC(N)=O)C(=O)N[C@@H](C)C(=O)N1CCC[C@H]1C(=O)N[C@H](C(=O)N[C@@H](CO)C(=O)N[C@H](C(=O)N1CCC[C@H]1C(=O)N[C@@H](CCC(N)=O)C(N)=O)[C@@H](C)CC)C(C)C [BMEC-NAP0504, nHex-OCO-NAPVSIPQ-NH2] | 82.71 | 100.22 | 0.49
8 | CCCCCCOC(=O)N[C@@H](CC(N)=O)C(=O)N[C@@H](C)C(=O)N1CCC[C@H]1C(=O)N[C@H](C(=O)N[C@@H](CO)C(=O)N[C@H](C(=O)N1CCC[C@H]1C(=O)N[C@@H](CCC(N)=O)C(=O)O)[C@@H](C)CC)C(C)C [BMEC-NAP0404, nHex-OCO-NAPVSIPQ-OH] | 29.87 | 99.16 | 2.00
9 | CC[C@H](C)[C@H](NC(=O)[C@H](CO)NC(=O)[C@@H](NC(=O)[C@@H]1CCCN1C(=O)[C@H](C)NC(=O)[C@H](CC(N)=O)NC(=O)c1cccs1)C(C)C)C(=O)N1CCC[C@H]1C(=O)N[C@@H](CCC(N)=O)C(=O)O [BMEC-NAP0704, 2-Thiophenecarbonyl-NAPVSIPQ-OH] | 73.69 | 99.88 | 0.24
10 | CC[C@H](C)[C@@H]1NC(=O)[C@H](CO)NC(=O)[C@H](C(C)C)NC(=O)[C@@H]2CCCN2C(=O)[C@H](C)NC(=O)[C@H](CC(N)=O)NC(=O)[C@H](CCC(N)=O)NC(=O)[C@@H]2CCCN2C1=O [BMEC-NAP0301, Cyclo-(NAPVSIPQ)] | 94.72 | 100.72 | 0.35
11 | CCCCCCCCOC(=O)N[C@@H](CC(N)=O)C(=O)N[C@@H](C)C(=O)N1CCC[C@H]1C(=O)N[C@H](C(=O)N[C@@H](CO)C(=O)N[C@H](C(=O)N1CCC[C@H]1C(=O)N[C@@H](CCC(N)=O)C(N)=O)[C@@H](C)CC)C(C)C [BMEC-NAP0505, nOct-OCO-NAPVSIPQ-NH2] | 76.83 | 93.41 | 0.65
12 | H-NAPVSIPAQ-OH [BMEC-NAP0601, H-NAPVSIPAQ-OH] |  |  | 0.07
13 | CC[C@H](C)[C@H](NC(=O)[C@H](CO)NC(=O)[C@@H](NC(=O)[C@@H]1CCCN1C(=O)[C@H](C)NC(=O)[C@H](CC(N)=O)NC(=O)OCc1ccccc1)C(C)C)C(=O)N1CCC[C@H]1C(=O)N[C@@H](CCC(N)=O)C(N)=O [BMEC-NAP0805, Cbz-NAPVSIPQ-NH2] | 89.54 | 98.58 | 0.27
14 | H-NAPVSIPN-OH [BMEC-NAP0603, H-NAPVSIPN-OH] | 29.17 | 101.90 | 0.04
15 | CC[C@H](C)[C@H](NC(=O)[C@H](CO)NC(=O)[C@@H](NC(=O)[C@@H]1CCCN1C(=O)[C@H](C)NC(=O)[C@H](CC(N)=O)NC(=O)c1cccc2ccccc12)C(C)C)C(=O)N1CCC[C@H]1C(=O)N[C@@H](CCC(N)=O)C(N)=O [BMEC-NAP0802, α-Naphthoyl-NAPVSIPQ-NH2] | 88.68 | 100.00 | 0.34
16 | CCCC(=O)N[C@@H](CC(N)=O)C(=O)N[C@@H](C)C(=O)N1CCC[C@H]1C(=O)N[C@H](C(=O)N[C@@H](CO)C(=O)N[C@H](C(=O)N1CCC[C@H]1C(=O)N[C@@H](CCC(N)=O)C(N)=O)[C@@H](C)CC)C(C)C [BMEC-NAP0201, Butyryl-NAPVSIPQ-NH2] | 94.18 | 100.39 | 0.12
17 | CC[C@H](C)[C@H](NC(=O)[C@H](CO)NC(=O)[C@@H](NC(=O)[C@@H]1CCCN1C(=O)[C@H](C)NC(=O)[C@H](CC(N)=O)NC(=O)OCC1c2ccccc2-c2ccccc21)C(C)C)C(=O)N1CCC[C@H]1C(=O)N[C@@H](CCC(N)=O)C(N)=O [BMEC-NAP0806, Fmoc-NAPVSIPQ-NH2] | 76.24 | 100.00 | 
18 | CC[C@H](C)[C@@H]1NC(=O)[C@H](CO)NC(=O)[C@H](C(C)C)NC(=O)[C@@H]2CCCN2C(=O)[C@H](C)NC(=O)[C@H](CC(N)=O)NC(=O)[C@@H](N)CSSC[C@@H](C(=O)O)NC(=O)[C@H](CCC(N)=O)NC(=O)[C@@H]2CCCN2C1=O [BMEC-NAP0302] (H-CNAPVSIPQC-OH; disulfide 1-10; N-terminus and C-terminus assumed) | 81.33 |  | 1.28
19 | CC[C@H](C)[C@H](NC(=O)[C@H](COP(=O)(O)O)NC(=O)[C@@H](NC(=O)[C@@H]1CCCN1C(=O)[C@H](C)NC(=O)[C@@H](N)CC(N)=O)C(C)C)C(=O)N1CCC[C@H]1C(=O)N[C@@H](CCC(N)=O)C(=O)O [BMEC-NAP9902, NH2-NAPVS(OPO3H2)IPQ-OH] | 94.19 | 98.80 | 
20 | H-NAPISIPAN-OH [BMEC-NAP0608, H-NAPISIPAN-OH] | 30.58 | 110.89 | 
